In brackets after ≈: the same amount, converted by molar mass.
Columns and labels:
[1] = tested on: P. aeruginosa ATCC 35151; experiment: microbe, parasite or virus in culture; format: cell-based; conditions: Pseudomonas aeruginosa, ATCC35151, read-out: Minimum inhibitory concentration, P. aeruginosa ATCC 35151
[2] = tested on: A. baumannii CDC-0083; experiment: microbe, parasite or virus in culture; format: cell-based; conditions: Acinetobacter baumannii, CDC0083, read-out: MIC, A. baumannii CDC-0083
[3] = molecular target: T1, PBP3 from Pseudomonas aeruginosa (PAO1) (Pseudomonas aeruginosa, UniProt G3XD46); experiment: Bocillin-FL fluorescence polarization competition binding, P. aeruginosa PBP3; conditions: Binding affinity to P. aeruginosa PBP3; fluorescence polarization competition binding assay using Bocillin-FL; read-out: P. aeruginosa PBP3 Potency
T1 construct: made in house
T1 sequence (G3XD46 whole entry): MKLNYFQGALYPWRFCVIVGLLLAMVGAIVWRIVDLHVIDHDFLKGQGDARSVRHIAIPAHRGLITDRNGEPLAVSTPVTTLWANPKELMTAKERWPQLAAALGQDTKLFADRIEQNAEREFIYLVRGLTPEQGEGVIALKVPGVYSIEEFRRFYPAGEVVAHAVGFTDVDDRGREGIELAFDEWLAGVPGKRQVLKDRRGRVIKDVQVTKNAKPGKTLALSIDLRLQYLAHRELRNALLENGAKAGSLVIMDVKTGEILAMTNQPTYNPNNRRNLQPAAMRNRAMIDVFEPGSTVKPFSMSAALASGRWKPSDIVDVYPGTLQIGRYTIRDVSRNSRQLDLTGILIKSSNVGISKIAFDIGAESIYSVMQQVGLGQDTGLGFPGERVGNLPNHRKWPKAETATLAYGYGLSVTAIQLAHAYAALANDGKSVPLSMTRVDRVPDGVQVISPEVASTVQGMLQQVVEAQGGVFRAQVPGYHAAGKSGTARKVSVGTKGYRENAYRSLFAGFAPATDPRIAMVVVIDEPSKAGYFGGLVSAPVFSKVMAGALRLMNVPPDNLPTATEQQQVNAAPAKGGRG
In short: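 Purified PBPs pre-incubated with inhibitor (E. coli PBP3 1.5 μM, 30 min; P. aeruginosa PBP3 0.75 μM, A. baumannii PBP1a 1 μM and PBP3 0.2 μM, 15 min), then Bocillin-FL 0.1 μM (0.05 μM for PBP1a) added; FP read up to 60 min. EC50 = concentration halving bound Bocillin-FL.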

[4] = tested on: B. humptydooensis ATCC BAA-2767; experiment: microbe, parasite or virus in culture; format: cell-based; conditions: Burkholderia humptydooensis, ATCCBAA2767, read-out: Minimum inhibitory concentration (MIC), B. humptydooensis ATCC BAA-2767
[5] = tested on: A. baumannii CDC-0045; experiment: microbe, parasite or virus in culture; format: cell-based; conditions: Acinetobacter baumannii, CDC0045, read-out: MIC, A. baumannii CDC-0045
[6] = tested on: P. aeruginosa CDC-0095; experiment: microbe, parasite or virus in culture; format: cell-based; conditions: Pseudomonas aeruginosa, CDC0095, read-out: Minimum inhibitory concentration, P. aeruginosa CDC-0095
[7] = tested on: A. baumannii ATCC 17978; experiment: microbe, parasite or virus in culture; format: cell-based; conditions: Acinetobacter baumannii, ATCC17978, read-out: MIC, A. baumannii ATCC 17978
[8] = tested on: A. baumannii ATCC 19606; experiment: microbe, parasite or virus in culture; format: cell-based; conditions: Acinetobacter baumannii, ATCC19606, read-out: MIC, A. baumannii ATCC 19606
[9] = tested on: A. baumannii CDC-0036; experiment: microbe, parasite or virus in culture; format: cell-based; conditions: Acinetobacter baumannii, CDC0036, read-out: MIC, A. baumannii CDC-0036
[10] = tested on: A. baumannii 1258916; experiment: microbe, parasite or virus in culture; format: cell-based, Acinetobacter baumannii; conditions: Acinetobacter baumannii, 1258916, read-out: MIC, A. baumannii 1258916
[11] = tested on: B. thailandensis ATCC 700388; experiment: microbe, parasite or virus in culture; format: cell-based; conditions: Burkholderia thailandensis, ATCC700388, read-out: Minimum inhibitory concentration (MIC), B. thailandensis ATCC 700388
[12] = tested on: A. baumannii CDC-0033; experiment: microbe, parasite or virus in culture; format: cell-based; conditions: Acinetobacter baumannii, CDC0033, read-out: MIC, A. baumannii CDC-0033

| Structure (SMILES) | MIC [1] [µg/mL] | MIC [2] [µg/mL] | IC50 [3] [µM] | MIC [4] [µg/mL] | MIC [5] [µg/mL] | MIC [6] [µg/mL] | MIC [7] [µg/mL] | MIC [8] [µg/mL] | MIC [9] [µg/mL] | MIC [10] [µg/mL] | MIC [11] [µg/mL] | MIC [12] [µg/mL] |
| --- | --- | --- | --- | --- | --- | --- | --- | --- | --- | --- | --- | --- |
| O=C(NCCCS(=O)(=O)N1CCN(C(=O)NC(C(=O)N[C@H]2Cc3ccc(F)c(C(=O)O)c3OB2O)c2cc(F)c(O)c(O)c2Cl)C1=O)Nc1ccncc1 (stereo partly drawn) [Example 291, (3R)-3-(2-(2-chloro-5-fluoro-3,4-dihydroxyphenyl)-2-(2-oxo-3-((3-(3-(pyridin-4-yl)ureido)propyl)sulfonyl)imidazolidine-1-carboxamido)acetamido)-7-fluoro-2-hydroxy-3,4-dihydro-2H-benzo[e][1,2]oxaborinine-8-carboxylic acid] | < 1 | < 1 | < 10 | < 1 | 2 to 4 (≈ 2.51 to 5.03 µM) | > 128 | < 1 | < 1 | 2 to 4 (≈ 2.51 to 5.03 µM) | < 1 | 2 to 4 (≈ 2.51 to 5.03 µM) | 2 to 4 (≈ 2.51 to 5.03 µM) |
| O=C(NCCCS(=O)(=O)N1CCN(C(=O)NC(C(=O)N[C@H]2Cc3ccc(F)c(C(=O)O)c3OB2O)c2cc(F)c(O)c(O)c2Cl)C1=O)Nc1cccnc1 (stereo partly drawn) [Example 278, (3R)-3-(2-(2-chloro-5-fluoro-3,4-dihydroxyphenyl)-2-(2-oxo-3-((3-(3-(pyridin-3-yl)ureido)propyl)sulfonyl)imidazolidine-1-carboxamido)acetamido)-7-fluoro-2-hydroxy-3,4-dihydro-2H-benzo[e][1,2]oxaborinine-8-carboxylic acid] | < 1 | < 1 | < 10 | 2 to 4 (≈ 2.51 to 5.03 µM) | < 1 | 8 to 16 (≈ 10.1 to 20.1 µM) | < 1 | < 1 | 2 to 4 (≈ 2.51 to 5.03 µM) | < 1 | 2 to 4 (≈ 2.51 to 5.03 µM) | 8 to 16 (≈ 10.1 to 20.1 µM) |
| Cc1cc(C(=O)NCCCN2CCN(C(=O)NC(C(=O)N[C@H]3Cc4ccc(F)c(C(=O)O)c4OB3O)c3cc(F)c(O)c(O)c3Cl)C(=O)C2=O)c(F)cn1 (stereo partly drawn) [Example 301, (3R)-3-(2-(2-chloro-5-fluoro-3,4-dihydroxyphenyl)-2-(4-(3-(5-fluoro-2-methylisonicotinamido)propyl)-2,3-dioxopiperazine-1-carboxamido)acetamido)-7-fluoro-2-hydroxy-3,4-dihydro-2H-benzo[e][1,2]oxaborinine-8-carboxylic acid] | < 1 | < 1 | < 10 | 2 to 4 (≈ 2.57 to 5.15 µM) | < 1 | < 1 | < 1 | < 1 | 2 to 4 (≈ 2.57 to 5.15 µM) | < 1 | 2 to 4 (≈ 2.57 to 5.15 µM) | 2 to 4 (≈ 2.57 to 5.15 µM) |
| O=C(NCCCN1CCN(C(=O)N[C@@H](C(=O)N[C@H]2Cc3ccc(F)c(C(=O)O)c3OB2O)c2cc(F)c(O)c(O)c2Cl)C(=O)C1=O)c1cccc(O)c1Cl [Example 303, (R)-3-((R)-2-(4-(3-(2-chloro-3-hydroxybenzamido)propyl)-2,3-dioxopiperazine-1-carboxamido)-2-(2-chloro-5-fluoro-3,4-dihydroxyphenyl)acetamido)-7-fluoro-2-hydroxy-3,4-dihydro-2H-benzo[e][1,2]oxaborinine-8-carboxylic acid] | < 1 | < 1 | < 10 | < 1 | < 1 | < 1 | < 1 | < 1 | < 1 | < 1 | < 1 | 2 to 4 (≈ 2.52 to 5.04 µM) |
| CS(=O)(=O)N1CCN(C(=O)N[C@@H](C(=O)N[C@H]2Cc3cccc(C(=O)O)c3OB2O)c2ccc(P(=O)(O)O)cc2)C1=O (single isomer, unassigned) [Example 6] | 2 to 4 (≈ 3.28 to 6.55 µM) | > 128 | < 10 | 2 to 4 (≈ 3.28 to 6.55 µM) | > 128 | > 128 | 2 to 4 (≈ 3.28 to 6.55 µM) | 8 to 16 (≈ 13.1 to 26.2 µM) | 32 to 64 (≈ 52.4 to 105 µM) | 32 to 64 (≈ 52.4 to 105 µM) | 8 to 16 (≈ 13.1 to 26.2 µM) | 32 to 64 (≈ 52.4 to 105 µM) |

Reference: US20240270762A1, “PENICILLIN-BINDING PROTEIN INHIBITORS” (priority 2021, published 2024)
